Measurements taken from patent publication US8101572B2, “Methods for promoting wound healing and/or reducing scar formation” (Arizona Board of Regents, A Corporate Body Organized Under …, priority 2003, dated 2012).
Non-standard residues stand in square brackets, D forms with d. No end group written: not given here. pS = N[C@@H](COP(=O)(O)O)C(=O)O

Legend:
Swiss albino 3T3 cells [1] = assay: f-actin cytoskeletal distribution (Alexa 568 phalloidin, confocal microscopy); format: cell-based; conditions: 30 min, 10 μM LPA, 10 μM forskolin, 25 μM FITC-pHSP20, 25 μM FITC-aHSP20
Method: (§1) Unless otherwise stated, all reagents were purchased from Sigma, St. Louis, Mo. Swiss Albino 3T3 fibroblasts (ATCC, Manassas, Va.) were cultured in DMEM supplemented with 10% BCS, 4 mM L-glutamine and 50 μg/ml penicillin-streptomycin and maintained at 37° C., 5% CO2. Cells were seeded and cultured overnight. Culture media was replaced with DMEM containing 0.5% BCS 1 hour prior to experimentation. Cells were incubated with the peptide analogues or reagent (LPA or forskolin) diluted in DMEM containing 0.5% BCS, 30 minutes at 37° C. Cells were then fixed in 4% paraformnaldehyde, permeabilized in 0.25% Triton X-100, and blocked with 1% BSA solution for 1 hour. To determine f-actin cytoskeletal distribution, treated cells were incubated with Alexa 568 phalloidin (Molecular Probes, Eugene, Oreg.) in 1% BSA, 30 minutes. […] Slides were mounted and analyzed by confocal microscopy (Leica TCS SP2, Bannockburn, Ill.). […]
Swiss albino 3T3 cells were either untreated or treated with 10 μM LPA, 10 μM forskolin, 25 μM FITC-pHSP20, or 25 μM FITC-aHSP20 as described (4). Cells were fixed, stained for f-actin using Alexa 568 phalloidin, and visualized by projection images of confocal fluorescence microscopy. […]

Swiss albino 3T3 cells [2] = assay: focal adhesion protein localization (immunostaining for α-actinin, vinculin, paxillin); format: cell-based; conditions: 30 min, 10 μM forskolin, 25 μM pHSP20, 25 μM FITC-aHSP20
Method: Unless otherwise stated, all reagents were purchased from Sigma, St. Louis, Mo. Swiss Albino 3T3 fibroblasts (ATCC, Manassas, Va.) were cultured in DMEM supplemented with 10% BCS, 4 mM L-glutamine and 50 μg/ml penicillin-streptomycin and maintained at 37° C., 5% CO2. Cells were seeded and cultured overnight. Culture media was replaced with DMEM containing 0.5% BCS 1 hour prior to experimentation. Cells were incubated with the peptide analogues or reagent (LPA or forskolin) diluted in DMEM containing 0.5% BCS, 30 minutes at 37° C. Cells were then fixed in 4% paraformnaldehyde, permeabilized in 0.25% Triton X-100, and blocked with 1% BSA solution for 1 hour. To determine f-actin cytoskeletal distribution, treated cells were incubated with Alexa 568 phalloidin (Molecular Probes, Eugene, Oreg.) in 1% BSA, 30 minutes. To determine focal adhesion protein localization, treated cells were incubated with primary monoclonal antibodies for α-actinin (1:100, Upstate, Charlottesville, Va.), vinculin (1:100, Sigma) or paxillin (1:100, BD Bioscience-Transduction Labs, San Jose, Calif.) in 1% BSA solution for 2 hours, rinsed in PBS and incubated 60 min with Cy3-goat IgG secondary antibody (Jackson ImmunoResearch, West Grove, Pa.). Slides were mounted and analyzed by confocal microscopy (Leica TCS SP2, Bannockburn, Ill.). […]

3T3 cells [3] = assay: focal adhesion assay using interference reflection microscopy; format: cell-based; conditions: cultured 3T3 cells; 100 nM Hep I, 10 μM and 25 μM peptide; FIG. 2
Method: Results from the focal adhesion assay using interference reflective microscopy on 3T3 cells treated as described (4). Each condition was tested in triplicate, and an average of 250 cells per coverslip was counted. A cell was scored positive if it contained at least five focal adhesions. Hep I (peptide from thrombospondin 1) was used as a positive control. *P<0.05 compared to untreated cells.
as §1

[4] = tested on: motor cortex of Sprague Dawley rats; assay: microwire neural electrode implant, histology for glial scarring (GFAP) and axons (MAP2); format: in vivo; conditions: rat motor cortex, four weeks after implant; peptide as subdural injection (0.1 cc, 100 μm p20) with dextran coated electrodes
Text: Microwire arrays were implanted in the motor cortex of Sprague Dawley rats. Six male Sprague-Dawley rats (300-450 g) were implanted with 2×4 arrays of 50 μm tungsten wire. The electrodes were spaced 500 um apart for a total array size of approximately 1.5 mm×0.5 mm. The implant was centered +3 mm anterior and +2 mm lateral from bregmna. The craniotomy was opened slightly larger than the implant size and an injection (0.1 cc, 0.9% PBS or 100 μm p20) was made into the arachnoid space near the implant site using a 30 gauge needle. The mirowire array was held in a micromanipulator and lowered 2 mm from the surface of the dura. The craniotomy was covered with Gelfoam® and the implant and connector were cemented in place with dental acrylic. Three groups were implanted and evaluated histologically after four weeks. Group one was implanted with untreated electrodes. […] Texas Red labeled anti-Rabbit and Cy5 labeled antij-donkey secondary antibodies were used respectively for visualization.

3T3 cells [5] = assay: DNase 1 inhibition assay for monomer g-actin; format: cell-based; conditions: forskolin 10 μM, 30 min, pHSP20 25 μM
Method: 3T3 cells were cultured and treated as indicated on the graph (4). Monomer g-actin was biochemically quantitated using a DNase 1 inhibition assay. The level of g-actin in the cell extract that caused 50% inhibition of DNase 1 was estimated from a standard actin curve that was determined using known amounts of actin. *P<0.05 compared to untreated cells.
To confirm that the loss of stress fibers is associated with loss of filamentous (f-) actin and commensurate increases in globular (g-) actin, a DNase 1 inhibition assay was performed (5). 3T3 cells were cultured and treated as indicated (4). Monomer g-actin was biochemically quantitated using a DNase 1 inhibition assay. The level of g-actin in the cell extract that caused 50% inhibition of DNase 1 was estimated from a standard actin curve that was determined using known amounts of actin. […] Thus, transduction of pHSP20 led to similar changes in actin filament dynamics and cellular morphology, as did activation of the upstream adenylate cyclase activator forskolin.

Substance	cell morphology and stress fibers (f-actin) (Swiss albino 3T3 cells [1])	focal adhesion accumulations of α-actinin, vinculin, and paxillin (Swiss albino 3T3 cells [2])	focal adhesions (cells positive for focal adhesions) (3T3 cells [3])	density of axons in the vicinity of the microwire electrodes [4]	glial scarring around electrodes [4]	g-actin (monomer) in cell extract (3T3 cells [5]; FIG. 1)	g-actin (monomer) in cell extract (3T3 cells [5]; FIG. 1, listed as PhosphoHSP20 peptide)
lysophosphatidic acid [reference compound]	displayed robust stress fibers	–	–	–	–	–	–
YGRKKRRQRRRWLRRApSAPLPGL (YGRKKRRQRRRWLRRA[pS]APLPGL) [pHSP20, phosphopeptide analogue of HSP20 with HIV Tat protein transduction domain]	displayed stellate morphology and disrupted stress fibers	displayed a decrease in focal adhesion accumulations of α-actinin, vinculin, and paxillin	led to disruption of focal adhesions	a higher density of axons was seen	essentially no scarring was observed	led to increases in g-actin	disrupts the actin cytoskeleton
